Laboratory results from publication PMC5344539, “Nematode neuropeptides as transgenic nematicides” (PLoS Pathogens, 2017).
“Also recorded” adds a separate entry of the source.

Tests used:
G. pallida J2s [1] = assay: Chemosensory (chemotaxis) assay of uNLP pre-treated J2s towards tomato root exudate; type: in vivo, Globodera pallida; details: Fig 2A; J2s incubated in 100 μM uNLP for 24 h; tomato cv. Moneymaker root exudate vs water agar plugs; counted after 3 h; mean of 10 replicates of 100 J2s; control 0.4154
Experimental: (§1) Predicted uNLPs from both M. incognita and G. pallida were synthesised by EZBiolab and dissolved into pH adjusted ddH2O to make a 5 mM stock which was aliquoted and stored at -20°C. J2s of both M. incognita and G. pallida were incubated for 24 hours in 200 μl of each peptide in a 24 well plate (SPL Lifesciences, South Korea) at a defined concentration.
(§2) A 60 mm Petri dish was divided into two segments, a positive and a negative side, with a 0.5 cm 'dead zone' either side of the centre point. The petri dish was filled with 15 ml of 0.25% w/v agar which was allowed to solidify. 3 ml of 0.25% w/v agar slurry in spring water (pH 7, agitated with a magnetic stirrer for several hours to give a smooth consistency) was added to the petri dish and spread evenly over the surface. Root diffusate (attractant) and water only (control) 0.25% agar plugs were embedded in the agar slurry, either side of the assay arena. Root diffusate was collected from 10 tomato plants, aged 3–6 weeks in 1 litre pots, by pouring 500 ml of ddH20 through the soil three times. Diffusate from each plant was combined, filter sterilised and stored at 4°C for a maximum of 1 month. Root diffusate agar plugs were made by melting 1.25% agar in ddH20, cooling to 50°C before mixing with 4 parts of root diffusate. The agar was then allowed to solidify at room temperature. 100 uNLP pre-treated M. incognita or G. pallida J2s were added by pipette to the centre of the plate. J2s which moved out of the 'dead zone' after 3 hours were counted and their location (+/-) scored. The distribution of J2s were used to create a chemotaxis index for each plate, which formed one replicate, a total of 10 replicates where completed for each uNLP treatment.

G. pallida J2s [2] = assay: Tomato invasion assay with uNLP pre-treated J2s; type: in vivo, Globodera pallida; details: Fig 2B; 500 J2s incubated in 100 μM uNLP for 24 h; single tomato seedling, 24 h at 18°C; normalised to negative control = 100%; mean
Experimental: as §1
(§3) Tomato seeds were sterilised with 2.5% NaOCl for 15 minutes, washed 5 times in ddH20 and germinated on 0.5% Murashige and Skoog plates at 23°C. […] Invasion assays were performed by mixing 500 pre-treated M. incognita or G. pallida J2s with agar slurry and a single tomato seedling (2 days post germination) in a 6 well plate. Assays were left at 23°C for 24 hours in the case of M. incognita and at 18°C for 24 hours in the case of G. pallida under a 16 hour light and 8 hour darkness cycle. Seedlings were stained using acid fuschin [69] and the number of nematodes within the roots counted. At least five seedlings were used for M. incognita infections assays, with at least 15 seedlings used for G. pallida infections assays (due to increased variation).

M. incognita J2s [3] = assay: Plant protection assay, C. reinhardtii secreting uNLPs; type: in vivo, Meloidogyne incognita; details: Fig 4A; peptide secreted by transgenic C. reinhardtii culture in tomato invasion arena with 500 J2s; relative to untransformed C. reinhardtii = 100%; mean
Experimental: as §3
(§4) B. subtilis were grown overnight in LB media containing ampicillin (100 μg/ml) at 37°C with shaking, and harvested in the log phase of growth determined by measuring OD600nm. Five ml of culture at 0.5 OD was spun down and the pellet mixed with 3 ml of agar slurry and 500 J2s from either G. pallida or M. incognita. C. reinhardtii clones were grown at 23°C with shaking, cultures in the log phase were measured at OD750 and 5 ml of culture at 0.5 OD was pelleted by centrifugation. C. reinhardtii pellets were mixed with 3 ml of agar slurry and 500 J2s from either G. pallida or M. incognita. Plant invasion assays were performed as described above. […]

[4] = tested on: S. carpocapsae infective juveniles (IJs); assay: S. carpocapsae host-finding assay (non-target); type: in vivo, Steinernema carpocapsae; details: Fig 5E; chemotaxis towards insect host Galleria mellonella; 100 IJs incubated 24 h in 100 μM uNLP; n = 5; control 0.2315
Experimental: S. carpocapsae were cultured in Galleria mellonella at 23°C. Infective juveniles (IJs) were collected using a White trap in PBS. Freshly emerged IJs were used for each assay. 100 IJs were incubated for 24 hours in 100 μM of selected uNLPs, and host-finding assays (n = 5) performed as in Morris et al..

M. incognita J2s [5] = assay: Tomato invasion assay with uNLP pre-treated J2s; type: in vivo, Meloidogyne incognita
Experimental: as §1, §3

mixed-stage C. elegans = assay: C. elegans chemotaxis assay (non-target); type: in vivo, Caenorhabditis elegans; details: worms soaked in 100 μM uNLP 24 h, counted after 1 h, 8 replicates
Experimental: C. elegans wild-type N2 Bristol strain were obtained from the C. elegans Genomics Center and maintained on a Escherichia coli (strain OP50) lawn on nematode growth medium (NGM) agar plates (3 g/l NaCl, 17 g/l agar, 2.5 g/l peptone, 5 mg/l cholesterol, 25 mM KH2PO4 (pH 6.0), 1 mM CaCl2, 1 mM MgSO4) at 20°C [70]. Chemotaxis assays were performed in a 9 cm diameter Petri dish on NGM agar which was split into a positive and negative side with a central ‘dead zone’ of 1.5 cm diameter. 100 mixed-staged C. elegans were washed three times in M9 buffer and soaked in 100 μM PPN uNLP, or M9 vehicle control for 24 hours. 2 μl of 50 mM sodium acetate, 0.5% pyrazine, 0.5% benzaldehyde or 0.5% diacetyl was spotted onto the positive side, 2 μl of ddH20 was spotted onto the negative side. Pyrazine, benzaldehyde and diacetyl volatile attractants were assayed immediately whereas the water soluble sodium acetate was assayed 18 hours following addition to the plate. Assays were maintained in the dark at 20°C, and counted after 1 hour. Eight replicates were conducted for each C. elegans attraction assay.

M. incognita J2s [6] = assay: Chemosensory (chemotaxis) assay of uNLP pre-treated J2s towards tomato root exudate; type: in vivo, Meloidogyne incognita; details: for CI score: Fig 1A, J2s incubated in 100 μM uNLP for 24 h, tomato cv. Moneymaker root exudate vs water agar plugs, counted after 3 h, mean of 10 replicates of 100 J2s, control 0.4426
Experimental: as §1, §2

M. incognita J2s [7] = assay: Serotonin-induced stylet thrusting assay; type: in vivo, Meloidogyne incognita; details: Fig 1C; J2s incubated in 100 μM uNLP for 24 h; stylet thrusts in 5 mM serotonin, counted 1 min; normalised to control = 100%; mean, at least 30 J2s
Experimental: as §1
Stylet thrusting assays where performed by incubating 100 M. incognita or G. pallida J2s for 15 minute in 5 mM or 2 mM serotonin (Sigma Aldrich, USA), respectively. J2s were placed on a glass slide and stylet thrusts were counted for randomly selected J2s, for 1 minute each. Counts for a given cohort of J2s were taken in a maximum interval of 15 minutes. Longer counting intervals, making for longer serotonin incubations, yielded inconsistent results. At least 30 J2s were counted for each neuropeptide treatment.

M. incognita J2s [8] = assay: Plant protection assay, B. subtilis secreting uNLPs; type: in vivo, Meloidogyne incognita; details: Fig 4B; peptide secreted by transgenic B. subtilis culture in tomato invasion arena with 500 J2s; control = 100%; mean
Experimental: as §3, §4

[9] = Fig 5A, attractant sodium acetate (50 mM), control 0.4269
[10] = Fig 5B, attractant pyrazine (0.5%), control 0.4904
[11] = Fig 5C, attractant benzaldehyde (0.5%), control 0.7026
[12] = Fig 5D, attractant diacetyl (0.5%), control 0.6638

Row | Substance | CI score (G. pallida J2s [1]) | % Invasion (G. pallida J2s [2]) | CI score [4] | CI score (mixed-stage C. elegans; [9]) | CI score (mixed-stage C. elegans; [10]) | CI score (mixed-stage C. elegans; [11]) | CI score (mixed-stage C. elegans; [12]) | CI score (M. incognita J2s [6]) | other results
1 | GGARAFNFFAPDE [Gp-NLP-21b, predicted unamidated NLP of G. pallida, synthesised] | -0.117 | 6.90% |  |  |  |  |  |  | 
2 | AGGRYFMRHFDDSPFAGWMA [Gp-NLP-21g, predicted unamidated NLP of G. pallida, synthesised] | -0.01357 | 214.80% |  |  |  |  |  |  | 
3 | GGGRYFIRPFADQ [Mi-NLP-9f, predicted unamidated NLP of M. incognita, synthesised; also secreted from transgenic C. reinhardtii] |  |  | 0.2462 | 0.5261 | 0.4599 | 0.7463 | 0.6 | -0.26 | % Invasion (M. incognita J2s [3]): 10.32%; effect on host invasion (in words) (M. incognita J2s [5]; 100 μM uNLP, 24 h, tomato cv. Moneymaker, relative to controls): inhibited; % Invasion (M. incognita J2s [5]; Fig 1B, 500 J2s incubated in 100 μM uNLP for 24 h, single tomato seedling, 24 h at 23°C, normalised to negative control = 100%, mean): 28.22%; effect on chemosensation (in words) (M. incognita J2s [6]; 100 μM uNLP, 24 h, relative to controls): inhibit chemosensation; also recorded: inhibited
4 | GGTRAFNFFVSDALPSSYE [Gp-NLP-21c, predicted unamidated NLP of G. pallida, synthesised] |  | 14.07% |  |  |  |  |  |  | 
5 | MVSWQPV [Mi-NLP-40, predicted unamidated NLP of M. incognita, synthesised; also secreted from transgenic B. subtilis] |  |  | 0.3057 | 0.482 | 0.5018 | 0.6686 | 0.5858 | -0.04 | % Thrusting (M. incognita J2s [7]): 210%; % Invasion (M. incognita J2s [8]): 23.72%
